In PMC11165727, “Improvement effects of a novel Chinese herbal formula in imiquimod and IL-23-stimulated mouse models of psoriasis” (Chinese Medicine, 2024):

Key:
[1] = Pharmacokinetics of ISDF in rats: baicalin in plasma; assay type: in vivo, Sprague–Dawley rats; conditions: oral ISDF 18.90 g/kg
Experimental: The rats were split into two groups, with 6 animals each: (a) an untreated control group, and (b) a group that received ISDF at a dosage of 18.90 g/kg. The rats were fasted overnight but had access to distilled water. Blood samples, around 0.4 mL, were harvested from the orbital bleeding while they were under anaesthesia with isoflurane. The blood samples were collected at several time points (5, 15, 30, 60, 120, 240, 480, and 1440 min) after the oral administration of ISDF to the rats. The blood was then centrifuged at 5000 rpm for 20 min (at 4 °C) to separate the plasma (upper) and blood cells (lower). The plasma (0.2 mL) was added with […] KH2PO4 (0.2 mL) and 1 mL methanol and acetonitrile (1:1) and vortexed for 10 min to precipitate protein, and then centrifugated at 10,000 rpm for five min to collect the supernatant. The supernatant was filtered, dried under nitrogen and then re-dissolved in methanol (0.2 mL) and stored at 4 °C [18]. The HPLC method was used to identify and quantify baicalin in plasma and berberine in erythrocytes, as previously published. All the data were shown as mean ± SEM. One-way ANOVA followed by the Bonferroni test was performed using GraphPad Prism v9.0. Statistical significance between experimental groups was considered when p < 0.05. The pharmacokinetics profile of ISDF was calculated using Drug and Statistics (DAS, China) software v2.0.

[2] = Pharmacokinetics of ISDF in rats: berberine in erythrocytes; assay type: in vivo, Sprague–Dawley rats; conditions: oral ISDF 18.90 g/kg
Experimental: The rats were split into two groups, with 6 animals each: (a) an untreated control group, and (b) a group that received ISDF at a dosage of 18.90 g/kg. The rats were fasted overnight but had access to distilled water. Blood samples, around 0.4 mL, were harvested from the orbital bleeding while they were under anaesthesia with isoflurane. The blood samples were collected at several time points (5, 15, 30, 60, 120, 240, 480, and 1440 min) after the oral administration of ISDF to the rats. The blood was then centrifuged at 5000 rpm for 20 min (at 4 °C) to separate the plasma (upper) and blood cells (lower). The blood cells were washed thrice with cold 0.9% saline, and then centrifuged at 3500 rpm for five min. The resulting erythrocytes were suspended in cold 0.9% saline (0.5 mL). Afterwards, the erythrocytes were mixed with an equal volume of 15% hydrochloric acid and heated at 60 ℃ for 6 h. They were then centrifugated at 12,000 rpm for 10 min to collect the supernatant, which was filtered and dried under nitrogen. Finally, it was re-dissolved with 0.2 mL methanol. The HPLC method was used to identify and quantify baicalin in plasma and berberine in erythrocytes, as previously published. All the data were shown as mean ± SEM. One-way ANOVA followed by the Bonferroni test was performed using GraphPad Prism v9.0. Statistical significance between experimental groups was considered when p < 0.05. The pharmacokinetics profile of ISDF was calculated using Drug and Statistics (DAS, China) software v2.0.

[3] = tested on: IMQ-induced mouse psoriasis model; experiment: IMQ-induced mouse psoriasis model: body weight, dorsal skin thickness, PASI, epidermal thickness; assay type: in vivo, Balb/c mice
Experimental: (§1) A total of 48 Balb/c mice were randomly assigned to: (a) normal control group (NC); (b) IMQ group; (c) IMQ plus dexamethasone (DXM, as the positive control, 3 mg/kg) group; and (d-f) IMQ plus ISDF (3.15, 6.30 and 9.45 g/kg) groups. All mice, except the NC group, were topically dosed with 62.5 mg Aldara (iNova pharmaceuticals, Australia) daily on the shaved dorsal skin. After the seven-day sensitization of IMQ, the psoriasis symptoms appeared on the dorsal area. Between day 8 and day 22, Aldara cream was applied once every three days for a total of six applications, with each application consisting of 62.5 mg of the cream being applied to the same area. ISDF and DXM were suspended in 0.5% CMC-Na and orally given to the mice once daily for two weeks. Treatments were initiated seven days after the first IMQ sensitization. The mice in the NC group and the IMQ group were administered with only the vehicle for two weeks. (Fig. 1A).
(§2) The severity of psoriatic lesions on the dorsal area of mice was assessed by psoriasis area and severity index (PASI). The researcher scored the degree of erythema and skin scaling on a scale of zero to four, where 0: no symptoms, 1: slight, 2: moderate, 3: severe, and 4: very severe. The dorsal skin thickness was measured using an electronic vernier caliper which was placed on the middle line of the dorsal area.
(§3) The dorsal skin tissues were harvested and fixed in 4% paraformaldehyde (PFA) for one day and then embedded in paraffin, followed by section, deparaffinization and rehydration. Five-micrometre sections of dorsal skin were stained with hematoxylin & eosin and observed through a light microscope (Zeiss AxioObserver Z1, Germany) to assess histopathological changes.

[4] = tested on: gene expression of IL-4, IL-6, IL-1β and TNF-α; experiment: Real-time PCR on dorsal skin tissues of IMQ-induced mice; assay type: in vivo, Balb/c mice; conditions: IMQ model; DXM 3 mg/kg oral
Experimental: as §1
The same experimental procedure was used as described in our previous study. In the present study, we conducted Mouse TaqMan gene expression assays using the following assay IDs: IL-4 (Mm00445259_m1), IL-6 (Mm00446190_m1), IL-1β (Mm00434228_m1), TNF-α (Mm00443258_m1) and β-actin (Mm02619580_g1).

[5] = tested on: IL-17A, IL-22, IL-6, IL-4; experiment: ELISA of inflammatory cytokines in serum and dorsal skin of IMQ-induced mice; assay type: in vivo, Balb/c mice; conditions: IMQ model; DXM 3 mg/kg oral; vs IMQ group
Experimental: as §1
(§4) After the last drug treatment, blood samples were harvested and stored at room temperature for one hour, and then centrifuged at 3500 rpm for 20 min. The ELISA kits were used to collect the supernatant and determine the contents of IL-17A (ab199081), IL-22 (ab223857), IL-6 (ab222503) (Abcam, USA) and IL-23 (BMS6017, Thermo Fisher Scientific, USA). After being sacrificed, mouse skin tissues were collected, homogenized with cell extract buffer from Abcam, USA, and centrifuged at 12,000 rpm for 30 min (at 4 °C). The skin samples were analyzed for total protein contents using a […] assay kit. The concentrations of IL-4, IL-17A, IL-22 and IL-23 in the supernatant were determined.

IL-17A, IL-22, IL-23 = experiment: ELISA of cytokines in serum and injected skin of IL-23-induced mice; assay type: in vivo, C57 mice; conditions: IL-23 model; DXM 3 mg/kg oral; vs IL-23 group
Experimental: (§5) A total of 48 C57 mice were randomly assigned to: (a) NC group; (b) IL-23 group; (c) IL-23 plus DXM (3 mg/kg) group; and (d–f) IL-23 plus ISDF (3.15, 6.30 and 9.45 g/kg) groups. Firstly, mice were pre-treated with ISDF or DXM before IL-23 injection. 0.5% CMC-Na was used to suspend ISDF and DXM which were orally given to mice once daily for two weeks, and the mice in the NC group and the IL-23 group were treated with only the vehicle for two weeks. The IL-23 administration was initiated 7 days post the first ISDF/DXM treatment. From day 8, mice concurrently orally received with ISDF/DXM treatment and intradermal injections of recombinant mouse IL-23 (Biolegend, USA) in two locations on the shaved dorsal skin at 1 μg/mouse/day using a 30-gauge needle for seven days. Sterile saline was used as the vehicle control for the NC group. After the seven-day sensitization of IL-23, the psoriasis symptoms appeared on the dorsal area of the mice. The weight of the mice and their dorsal skin thickness was monitored (on day 1, 7, and 14). On the last day, the scoring of the skin psoriasis severity was determined according to PASI after the last drug treatment (Fig. 2A).
as §4

[6] = tested on: IL-23-induced mouse psoriasis model; experiment: IL-23-induced mouse psoriasis model: body weight, dorsal skin thickness, PASI, epidermal thickness; assay type: in vivo, C57 mice; conditions: IL-23 model, DXM 3 mg/kg oral
Experimental: as §5, §2, §3

[7] = Sprague-Dawley, rat, 18.9 g/kg, read-out: Area under the curve (AUC0-∞)
[8] = Sprague-Dawley, rat, 18.9 g/kg, read-out: Mean residence time (MRT0-t)
[9] = Sprague-Dawley, rat, 18.9 g/kg, read-out: The maximum concentration (Cmax)

Question: For `O=C(O)[C@H]1O[C@@H](Oc2cc3oc(-c4ccccc4)cc(=O)c3c(O)c2O)[C@H](O)[C@@H](O)[C@@H]1O` [Baicalin, baicalin], which AUC(0-inf) [1, 7] is on record?
Answer: 10000 ± 810 ng·h/mL

Question: What about the MRT last [1, 8] of the same compound?
Answer: 7.98 ± 0.61 h

Question: And the Cmax [1, 9]?
Answer: 670 ± 60 ng/mL

Question: And the “The time required for drug concentration to decrease by 50% (t1/2)” value [1]?
Answer: 14.06 ± 3.25 h

Question: And the “Time to reach Cmax (Tmax)” value [1]?
Answer: 2.01 ± 0.28 h

Question: For `COc1ccc2cc3[n+](cc2c1OC)CCc1cc2c(cc1-3)OCO2` [Berberine, berberine], which AUC(0-inf) [2, 7] is on record?
Answer: 24200 ± 17400 ng·h/mL

Question: And the MRT last [2, 8]?
Answer: 9.24 ± 1.31 h

Question: What about the Cmax [2, 9] of the same compound?
Answer: 1440 ± 710 ng/mL

Question: And the “The time required for drug concentration to decrease by 50% (t1/2)” value [2]?
Answer: 10.77 ± 5.80 h

Question: What about the “Time to reach Cmax (Tmax)” value [2] of the same compound?
Answer: 2.33 ± 1.52 h

Question: Which Body weight ([3]; DXM 3 mg/kg oral once daily, days 14 and 21, vs NC group) does the source give for `C[C@@H]1C[C@H]2[C@@H]3CCC4=CC(=O)C=C[C@]4(C)[C@@]3(F)[C@@H](O)C[C@]2(C)[C@@]1(O)C(=O)CO` [DXM, dexamethasone] here?
Answer: remarkable decrease

Question: What about the “Decrease in PASI score” value ([3]; DXM 3 mg/kg oral, day 21, vs IMQ group) of the same compound?
Answer: 79.41%

Question: And the “Reduction of dorsal skin thickness” value ([3]; DXM 3 mg/kg oral, two-week treatment, vs IMQ group)?
Answer: 51.69%

Question: What about the “Decrease of epidermal thickness” value ([3]; DXM 3 mg/kg oral, vs IMQ group) of the same compound?
Answer: 52.75%

Question: And the “Gene expression of IL-4, IL-6, IL-1β and TNF-α in skin” value [4]?
Answer: substantially down-regulate

Question: What about the “Decrease of serum IL-17A” value [5] of the same compound?
Answer: 91.29%

Question: What about the “Reduction of IL-17A content in dorsal skin” value [5] of the same compound?
Answer: 75.98%

Question: And the “Reduction of serum IL-6” value [5]?
Answer: 88.91%

Question: What about the “Reduction of serum IL-22” value [5] of the same compound?
Answer: 67.47%

Question: What about the “Decrease of IL-23 level in the injected skin” value (IL-17A, IL-22, IL-23) of the same compound?
Answer: 43.34%

Question: And the “Reduction of serum IL-17A” value (IL-17A, IL-22, IL-23)?
Answer: 62.20%

Question: What about the “Reduction of serum IL-22 content” value (IL-17A, IL-22, IL-23) of the same compound?
Answer: 39.12%

Question: And the Body weight [6]?
Answer: significantly induced a body weight reduction

Question: And the “Decrease of dorsal skin thickness” value ([6]; day 14, vs IL-23 group)?
Answer: 55.14%

Question: And the “Reduction of PASI score” value ([6]; day 14, vs IL-23 group)?
Answer: 85.24%

Question: What about the “Decrease of epidermal thickness” value ([6]; vs IL-23 group) of the same compound?
Answer: 72.26%
